Laboratory results: paper PMC10233710 (ChemMedChem, 2023)
Read-outs that look alike come from different tables or passages of the source.

How the values were obtained:
recombinant TOP1 = target: T1, recombinant TOP1 (Homo sapiens, UniProt P11387); test: TOP1-mediated DNA cleavage assay; format: biochemical; conditions: TOP1 cleavage inhibitory activity, semiquantitative relative to CPT at 1 μM
T1 sequence (P11387 1-765): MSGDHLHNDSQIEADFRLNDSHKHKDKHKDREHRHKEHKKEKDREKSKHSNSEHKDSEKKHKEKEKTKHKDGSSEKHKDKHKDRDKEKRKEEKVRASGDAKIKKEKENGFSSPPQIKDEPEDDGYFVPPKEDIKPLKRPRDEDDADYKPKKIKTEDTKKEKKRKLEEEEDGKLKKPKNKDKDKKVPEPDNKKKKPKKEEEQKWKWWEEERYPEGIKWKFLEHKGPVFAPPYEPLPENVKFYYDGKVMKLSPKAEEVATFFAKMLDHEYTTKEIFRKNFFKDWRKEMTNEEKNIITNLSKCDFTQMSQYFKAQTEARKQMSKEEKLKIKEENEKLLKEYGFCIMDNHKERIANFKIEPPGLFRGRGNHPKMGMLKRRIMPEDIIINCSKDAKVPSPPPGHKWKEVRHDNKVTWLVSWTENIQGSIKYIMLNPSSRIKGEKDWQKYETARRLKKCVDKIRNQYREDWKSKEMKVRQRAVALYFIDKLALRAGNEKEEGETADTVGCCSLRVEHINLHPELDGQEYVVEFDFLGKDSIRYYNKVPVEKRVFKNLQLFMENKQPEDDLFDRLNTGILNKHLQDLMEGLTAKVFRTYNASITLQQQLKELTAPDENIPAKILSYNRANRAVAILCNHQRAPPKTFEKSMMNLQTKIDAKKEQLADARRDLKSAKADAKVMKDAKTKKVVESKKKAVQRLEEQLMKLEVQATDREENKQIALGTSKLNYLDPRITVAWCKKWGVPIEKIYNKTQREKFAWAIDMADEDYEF

recombinant human TDP1 = recombinant human TDP1 (Homo sapiens, UniProt Q9NUW8); test: TDP1 gel-based inhibition assay; format: biochemical
HCT-116 cells = test: MTT cytotoxicity assay, HCT-116; format: cell-based, human; conditions: read-out: GI50 ± SD (μM) HCT-116
MCF-7 cells = test: MTT cytotoxicity assay, MCF-7; format: cell-based, human; conditions: read-out: GI50 ± SD (μM) MCF-7

recombinant human TDP1, sequence (Q9NUW8 whole entry): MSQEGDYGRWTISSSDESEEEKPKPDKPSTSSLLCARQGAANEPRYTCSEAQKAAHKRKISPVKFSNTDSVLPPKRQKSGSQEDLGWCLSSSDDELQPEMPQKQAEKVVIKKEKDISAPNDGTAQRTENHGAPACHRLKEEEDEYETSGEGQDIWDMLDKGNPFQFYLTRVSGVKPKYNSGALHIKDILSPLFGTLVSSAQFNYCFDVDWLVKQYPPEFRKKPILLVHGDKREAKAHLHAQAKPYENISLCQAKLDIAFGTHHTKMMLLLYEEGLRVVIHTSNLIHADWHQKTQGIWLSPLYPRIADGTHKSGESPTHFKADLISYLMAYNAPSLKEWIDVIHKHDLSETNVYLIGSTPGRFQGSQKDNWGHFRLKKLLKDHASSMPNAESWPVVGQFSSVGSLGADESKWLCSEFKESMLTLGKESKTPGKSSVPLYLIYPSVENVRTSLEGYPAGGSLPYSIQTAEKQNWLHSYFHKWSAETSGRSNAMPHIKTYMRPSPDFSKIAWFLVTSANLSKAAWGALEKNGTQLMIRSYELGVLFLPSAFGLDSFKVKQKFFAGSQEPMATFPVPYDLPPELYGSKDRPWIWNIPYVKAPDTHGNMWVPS

IC50 (recombinant human TDP1; read-out: IC50 (μM) for TDP1, gel-based assay, Table 1) [µM]	Structure (SMILES)	TOP1 Inhibition (recombinant TOP1; Table 2)	IC50 (recombinant human TDP1) [µM]	GI50 (HCT-116 cells; Homo sapiens, HCT-116, 72 h) [µM]	GI50 (MCF-7 cells; Homo sapiens, MCF7, 72 h) [µM]	TOP1 Inhibition (recombinant TOP1; Table 1)	IC50 (recombinant human TDP1; read-out: IC50 (μM) for TDP1, gel-based assay, Table 2) [µM]	GI50 (HCT-116 cells; MTT assay, 72 h, Table 1) [µM]	GI50 (MCF-7 cells; MTT assay, 72 h, Table 1) [µM]
	COc1cc2c(=O)n(C)c3c4cc5c(cc4cc(OCCN(C)C)c3c2cc1OC)OCO5 [Compound 34, 5-(2-(Dimethylamino)ethoxy)-2,3-dimethoxy-12-methyl-[1,3]dioxolo[4’,5’:4,5]benzo[1,2-c]phenanthridin-13(12H)-one]	+ (+, between 20% and 50% activity)	37 to 111	11 ± 0.48	27 ± 1.5				
	COc1cc2c(=O)n(C)c3c4cc5c(cc4c(OCCCN4CCN(C)CC4)cc3c2cc1OC)OCO5 [Compound 19, 2,3-Dimethoxy-12-methyl-6-(3-(4-methylpiperazin-1-yl)propoxy)-[1,3]dioxolo[4’,5’:4,5]benzo[1,2-c]phenanthridin-13(12H)-one]		> 111	1.5 ± 0.21	0.93 ± 0.07	++ (++, between 50% and 75% activity)			
	COc1cc2c(=O)n(C)c3c4cc5c(cc4c(OCCn4ccnc4)cc3c2cc1OC)OCO5 [Compound 20, 6-(2-(1H-Imidazol-1-yl)ethoxy)-2,3-dimethoxy-12-methyl-[1,3]dioxolo[4’,5’:4,5]benzo[1,2-c]phenanthridin-13(12H)-one]		> 111	2.9 ± 0.45	2.7 ± 0.23	++ (++, between 50% and 75% activity)			
	CCN(CC)CCCOc1cc2cc3c(cc2c2c1c1cc(OC)c(OC)cc1c(=O)n2C)OCO3 [Compound 37, 5-(3-(Diethylamino)propoxy)-2,3-dimethoxy-12-methyl-[1,3]dioxolo[4’,5’:4,5]benzo[1,2-c]phenanthridin-13(12H)-one]	+ (+, between 20% and 50% activity)	15 ± 2.4	2.4 ± 0.11	2 ± 0.1				
	COc1cc2c(=O)n(C)c3c4cc5c(cc4c(OCCN4CCCCC4)cc3c2cc1OC)OCO5 [Compound 16, 2,3-Dimethoxy-12-methyl-6-(2-(piperidin-1-yl)ethoxy)-[1,3]dioxolo[4’,5’:4,5]benzo[1,2-c]phenanthridin-13(12H)-one]		> 111	> 100	22 ± 7.7	+ (+, between 20% and 50% activity)			
	CCN(CC)CCOc1cc2cc3c(cc2c2c1c1cc(OC)c(OC)cc1c(=O)n2C)OCO3 [Compound 36, 5-(2-(Diethylamino)ethoxy)-2,3-dimethoxy-12-methyl-[1,3]dioxolo[4’,5’:4,5]benzo[1,2-c]phenanthridin-13(12H)-one]	0		2.1 ± 0.23	1.6 ± 0.17		> 111		
> 111	COc1cc2c(=O)n(C)c3c4cc5c(cc4ccc3c2cc1OC)OCO5 [Compound 4, oxynitidine, reference compound]							75 ± 4.4	> 100
	COc1cc2c(=O)n(C)c3c4cc5c(cc4c(O)cc3c2cc1OC)OCO5 [Compound 11, 6-Hydroxy-2,3-dimethoxy-12-methyl-[1,3]dioxolo[4’,5’:4,5]benzo[1,2-c]phenanthridin-13(12H)-one]		> 111	> 100	> 100	0			
	COc1cc2c(=O)n(C)c3c4cc5c(cc4c(OCCN(C)C)cc3c2cc1OC)OCO5 [Compound 14, 6-(2-(Dimethylamino)ethoxy)-2,3-dimethoxy-12-methyl-[1,3]dioxolo[4’,5’:4,5]benzo[1,2-c]phenanthridin-13(12H)-one]		37 to 111	4.6 ± 0.41	8.5 ± 0.91	+ (+, between 20% and 50% activity)			
	COc1cc2c(=O)n(C)c3c4cc5c(cc4cc(O)c3c2cc1OC)OCO5 [Compound 33, 5-Hydroxy-2,3-dimethoxy-12-methyl-[1,3]dioxolo[4’,5’:4,5]benzo[1,2-c]phenanthridin-13(12H)-one]	+ (+, between 20% and 50% activity)	> 111	> 100	> 100				
	COc1cc2c(=O)n(C)c3c4cc5c(cc4cc(OCCCN4CCCC4)c3c2cc1OC)OCO5 [Compound 39, 2,3-Dimethoxy-12-methyl-5-(3-(pyrrolidin-1-yl)propoxy)-[1,3]dioxolo[4’,5’:4,5]benzo[1,2-c]phenanthridin-13(12H)-one]	+ (+, between 20% and 50% activity)	15 ± 2.8	1.3 ± 0.21	1.4 ± 0.13				
	COc1cc2c(=O)n(C)c3c4cc5c(cc4cc(OCCN4CCOCC4)c3c2cc1OC)OCO5 [Compound 40, 2,3-Dimethoxy-12-methyl-5-(2-morpholinoethoxy)-[1,3]dioxolo[4’,5’:4,5]benzo[1,2-c]phenanthridin-13(12H)-one]	++ (++, between 50% and 75% activity)	> 111	15 ± 1.08	18 ± 0.67				
	CCOC(=O)COc1cc2c3cc(OC)c(OC)cc3c(=O)n(C)c2c2cc3c(cc12)OCO3 [Compound 23, Ethyl 2-((2,3-dimethoxy-12-methyl-13-oxo-12,13-dihydro-[1,3]dioxolo[4’,5’:4,5]benzo[1,2-c]phenanthridin-6-yl)oxy)acetate]		> 111	> 100	91 ± 5.9	0			
	COc1cc2c(=O)n(C)c3c4cc5c(cc4c(OCCCN(C)C)cc3c2cc1OC)OCO5 [Compound 15, 6-(3-(Dimethylamino)propoxy)-2,3-dimethoxy-12-methyl-[1,3]dioxolo[4’,5’:4,5]benzo[1,2-c]phenanthridin-13(12H)-one]		> 111	36 ± 1.3	54 ± 4.9	+ (+, between 20% and 50% activity)			
	COc1cc2c(=O)n(C)c3c4cc5c(cc4c(OCCCn4ccnc4)cc3c2cc1OC)OCO5 [Compound 21, 6-(3-(1H-Imidazol-1-yl)propoxy)-2,3-dimethoxy-12-methyl-[1,3]dioxolo[4’,5’:4,5]benzo[1,2-c]phenanthridin-13(12H)-one]		> 111	16 ± 3.6	64 ± 3.9	0			
	COc1cc2c(=O)n(C)c3c4cc5c(cc4cc(OCCCO)c3c2cc1OC)OCO5 [Compound 42, 5-(3-Hydroxypropoxy)-2,3-dimethoxy-12-methyl-[1,3]dioxolo[4’,5’:4,5]benzo[1,2-c]phenanthridin-13(12H)-one]	+ (+, between 20% and 50% activity)	> 111	38 ± 2.31	51 ± 1.6				
	COc1cc2c(=O)n(C)c3c4cc5c(cc4cc(OCCCN4CCOCC4)c3c2cc1OC)OCO5 [Compound 41, 2,3-Dimethoxy-12-methyl-5-(3-morpholinopropoxy)-[1,3]dioxolo[4’,5’:4,5]benzo[1,2-c]phenanthridin-13(12H)-one]	+ (+, between 20% and 50% activity)	> 111	3.3 ± 0.73	7.9 ± 1				
	COc1cc2c(=O)n(C)c3c4cc5c(cc4c(OC(C)=O)cc3c2cc1OC)OCO5 [Compound 10, 2,3-Dimethoxy-12-methyl-13-oxo-12,13-dihydro-[1,3]dioxolo[4’,5’:4,5]benzo[1,2-c]phenanthridin-6-yl acetate]		> 111	> 100	> 100	+ (+, between 20% and 50% activity)			
	COc1cc2c(=O)n(C)c3c4cc5c(cc4c(OCCN4CCN(C)CC4)cc3c2cc1OC)OCO5 [Compound 18, 2,3-Dimethoxy-12-methyl-6-(2-(4-methylpiperazin-1-yl)ethoxy)-[1,3]dioxolo[4’,5’:4,5]benzo[1,2-c]phenanthridin-13(12H)-one]		37 to 111	7.7 ± 0.56	7 ± 1.3	+ (+, between 20% and 50% activity)			
	CNCCOc1cc2c3cc(OC)c(OC)cc3c(=O)n(C)c2c2cc3c(cc12)OCO3 [Compound 12, 2,3-Dimethoxy-12-methyl-6-(2-(methylamino)ethoxy)-[1,3]dioxolo[4’,5’:4,5]benzo[1,2-c]phenanthridin-13(12H)-one]		> 111	1.3 ± 0.12	2.2 ± 0.06	+++ (+++, between 75% and 95% activity)			
	COc1cc2c(=O)n(C)c3c4cc5c(cc4c(OCCCN4CCCCC4)cc3c2cc1OC)OCO5 [Compound 17, 2,3-Dimethoxy-12-methyl-6-(3-(piperidin-1-yl)propoxy)-[1,3]dioxolo[4’,5’:4,5]benzo[1,2-c]phenanthridin-13(12H)-one]		> 111	1.8 ± 0.32	6.6 ± 1.3	++ (++, between 50% and 75% activity)			
